One data set concerns the target topoisomerase II α (Homo sapiens, UniProt P11388). Put plainly: Topoisomerase II ATPase assay (coupled, NADH oxidation). The settings on record: for inhibition of ATPase activity in the presence of DTT, in words: 10 mM DTT in the reaction buffer. Also on record: made in house; host or cells: yeast (over-expressing yeast cells). In kind it is biochemical. The procedure: The reaction was monitored spectrophotometrically at 340 nm using a Bio-Tek EL808 Ultra Micro plate Reader connected to a computer with KC4 Software installed (Bio-Tek Instruments, U.S.). The change in absorbance was related to ADP production using A340^1M=6220 cm^−1. […] The rate of ATP hydrolysis, V, was determined from the linear part of the curve.
The steady-state rate of ATP hydrolysis was determined using a coupled ATPase assay as described herein. […] Error bars represent SEM of two independent experiments each performed in duplicate.
The steady-state rate of ATP hydrolysis was determined as described in for FIG. 3 and as described herein. In this analysis, the rate of ATP hydrolysis in the absence of drug was set to one in all experiments. Error bars represent SEM of 2 or 3 independent experiments each preformed in duplicate.

Data set [1] has as its target T1, wild-type human topoisomerase II α (Homo sapiens, UniProt P11388).
T1 construct: made in house; host or cells: yeast (over-expressing yeast cells)
Nature of the data set: Topoisomerase II DNA strand passage assay (kDNA decatenation), wild-type enzyme. It is filed as biochemical. To be noted: for inhibition of DNA strand passage (decatenation) activity, in words: wild-type enzyme, FIG. 2-A and FIG. 5. The procedure: Topoisomerase II catalytic activity (DNA strand passage activity) was measured by using a filter-based kDNA decatenation assay as described in Jensen et al., 2002. Briefly, 200 ng ^3H labelled kDNA isolated from C. fasciculata was incubated with increasing concentrations of drug in 20 μL reaction buffer containing 10 mM TRIS-HCl pH 7.7, 50 mM NaCl, 50 mM KCl, 5 mM MgCl2, 1 mM EDTA, 15 μg/mL BSA and 1 mM ATP using two units of purified wild-type or Y165S mutant topoisomerase II α for 20 minutes at 37° C. (where one unit of activity is defined as the amount of enzyme required for complete decatenation in the absence of drug). After addition of 5× stop buffer (5% Sarkosyl, 0.0025% bromophenol blue, and 50% glycerol), unprocessed kDNA network and decatenated DNA mini-circles were separated by filtering, and the amount of unprocessed kDNA in each reaction was determined by scintillation counting.
FIG. 2 describes the results of studies of the inhibition of topoisomerase II DNA strand passage activity by increasing concentrations of NSC 35866. Inhibition of human topoisomerase II α DNA strand passage activity was assessed by decatenation of tritium-labelled Crithidia fasiculata kDNA using a filter-based assay to separate unprocessed kDNA network from decatenated mini-circles. […] Error bars represent SEM of three independent experiments in panel A and two independent experiments in panel B.
Inhibition of human topoisomerase II α DNA strand passage activity was determined by decatenation of tritium labelled Crithidia fasiculata kDNA as described for FIG. 2. Error bars represent SEM of 3 or 4 independent experiments.

The subject of data set [2] is human SCLC OC—NYH cells. Nature of the data set: Clonogenic assay, antagonism of etoposide-induced cytotoxicity. In kind it is cell-based.
Experimental: Cells were then plated in 0.3% agar in 6 cm petri dishes with sheep red blood cells as feeder layer in triplicate, and were incubated under the same conditions as described above. Plates were counted after 3 weeks.
20 μM etoposide was then added, and the cells were incubated for one hour. Next, the drugs were washed out and the cells were plated and counted after three weeks as described herein.
The target of data set [3] is T2, human topoisomerase II α-DNA covalent complexes (Homo sapiens, UniProt P11388).
T2 construct: made in house; host or cells: yeast (over-expressing yeast cells)
Put plainly: Topoisomerase II DNA cleavage assay (phenol-chloroform extraction, Δcpm). It is filed as biochemical.
Text: In order to determine the ability of NSC 35866 to increase the level of topoisomerase II-DNA covalent complexes on DNA in vitro, a new and highly sensitive topoisomerase II DNA cleavage assay having a numeric readout was developed. […] The DNA substrate is a 950 bp linear ^3H-labelled DNA synthesized by PCR in the presence of ^3H-dATP. […] The DNA fragment was isolated from unincorporated dNTPs by ethanol precipitation at 0.3 M NaCl, followed by washing in 70% ethanol. The specific activity of the fragment was typically 10,000-20,000 cpm/μg. Before starting the assay, a drug dilution series comprising 10× the final drug concentration was made. Reaction mixtures containing 100 ng of the 950 bp linear ^3H-labelled DNA, 300 ng human topoisomerase II q, topoisomerase II cleavage buffer (10 mM TRIS-HCL pH 7.9, 50 mM NaCl, 50 mM KCl, 5 mM MgCl2, 1 mM EDTA, 15 μg/mL BSA and 1 mM Na2ATP), and increasing concentrations of drug in 50 μL reaction volumes were then incubated 10 minutes at 37° C. A “no topoisomerase II” sample and a “no drug” sample were always included as controls. Next, the cleavable complex was trapped by adding 5 μL 10% SDS. After vigorous vortexing, 45 uL TE buffer, pH=8.0, was added to obtain 100 μL per sample. 100 μL phenol:chloroform:isoamyl alcohol (25:24:1) equilibrated with TE buffer, pH=8.0, was then added, and the samples were vortexed vigorously for 30 seconds. Finally, the samples were centrifuged at 20,000 g for 2 minutes and 90 μL of the upper water phase was used for scintillation counting using 15 mL of Ultima gold scintillation fluid (Packard).
In order to establish whether NSC 35866 inhibits the DNA strand passage reaction of topoisomerase II by stabilising a covalent reaction intermediate, a new and highly sensitive topoisomerase II DNA cleavage assay having a numeric read-out was developed. This assay is based on the fact that after extraction with phenol-chloroform, protein-bound DNA is removed from the water phase, while naked DNA remains in the water phase. […] Consequently, in reactions containing topoisomerase II and linear DNA, the ability of compounds to remove DNA from the water phase after phenol-chloroform extraction should reflect their potency as topoisomerase II poisons. This assay was first validated by incubating 100 ng of a linear 950 bp PCR DNA fragment with 300 ng of purified human topoisomerase II α in the presence of increasing concentrations of the etoposide and m-AMSA. The DNA fragment was ^3H labelled by performing PCR in the presence of ^3H-dATP. In these experiments, a “no topoisomerase II” sample was always included to determine the level of radioactivity (DNA) retained in the water-phase when no enzyme is present. Within each experiment, the CPM values retained in the water phase in the topoisomerase II reactions were then subtracted from this background CPM value to give Δcpm. Consequently, the Δcpm values of samples with no drug added represent the background level of topoisomerase II-DNA covalent complexes present in the reaction mixture under the assay conditions, while the Δcpm levels in the presence of drugs represent the levels of poison-induced topoisomerase II-DNA covalent complexes.

In data set [4] the test system is human SCLC OC—NYH cells. Put plainly: Alkaline elution assay (DNA breaks). To be noted: 3 μM. It is filed as cell-based. The procedure:
Alkaline elution assay was performed as described in Kohn et al., 1976 with modifications as described in Sehested et al., 1998. Briefly, to assess the ability of NSC 35866 to protect against etoposide-induced DNA breaks, cells were incubated with increasing concentrations of NSC 35866 for 10 minutes, before 3 μM etoposide was added to the samples. The cells were then co-incubated with 3 μM etoposide along with the same concentrations of NSC 35866 for 60 minutes. Some samples contained no etoposide in order to assess whether NSC 35866 induced DNA breaks by itself. After incubation with drug, cells were lysed and the DNA fragments eluted. DNA in the experimental OC—NYH cells was metabolically labelled by ^14C-thymidine incorporation while DNA in the internal control L1210 cells was metabolically labelled by ^3H-thymidine incorporation.
FIG. 9 describes the results of studies of the ability of NSC 35866 to antagonise DNA breaks induced by etoposide in human SCLC OC—NYH cells in a dose dependent manner. Alkaline DNA elution was used to detect DNA fragmentation induced by 3 μM etoposide in the presence of increasing concentrations of NSC 35866 as described herein. H202 treated mouse leukemic L1210 cells were used as internal control for DNA fragmentation. The DNA of the experimental OC—NYH cells was ^14C-labelled while the DNA of the L1210 cells was 3H-labelled.

[5] abbreviates: measured in the absence of DTT, read-out: IC50.
Setting [6] is: in the presence of DNA (DNA-stimulated), read-out: IC50, inhibition of ATPase activity.

Counter-ions that a name gives are not always drawn. Like-named read-outs stand apart in the source and are kept apart here.

T1 sequence (P11388 whole entry): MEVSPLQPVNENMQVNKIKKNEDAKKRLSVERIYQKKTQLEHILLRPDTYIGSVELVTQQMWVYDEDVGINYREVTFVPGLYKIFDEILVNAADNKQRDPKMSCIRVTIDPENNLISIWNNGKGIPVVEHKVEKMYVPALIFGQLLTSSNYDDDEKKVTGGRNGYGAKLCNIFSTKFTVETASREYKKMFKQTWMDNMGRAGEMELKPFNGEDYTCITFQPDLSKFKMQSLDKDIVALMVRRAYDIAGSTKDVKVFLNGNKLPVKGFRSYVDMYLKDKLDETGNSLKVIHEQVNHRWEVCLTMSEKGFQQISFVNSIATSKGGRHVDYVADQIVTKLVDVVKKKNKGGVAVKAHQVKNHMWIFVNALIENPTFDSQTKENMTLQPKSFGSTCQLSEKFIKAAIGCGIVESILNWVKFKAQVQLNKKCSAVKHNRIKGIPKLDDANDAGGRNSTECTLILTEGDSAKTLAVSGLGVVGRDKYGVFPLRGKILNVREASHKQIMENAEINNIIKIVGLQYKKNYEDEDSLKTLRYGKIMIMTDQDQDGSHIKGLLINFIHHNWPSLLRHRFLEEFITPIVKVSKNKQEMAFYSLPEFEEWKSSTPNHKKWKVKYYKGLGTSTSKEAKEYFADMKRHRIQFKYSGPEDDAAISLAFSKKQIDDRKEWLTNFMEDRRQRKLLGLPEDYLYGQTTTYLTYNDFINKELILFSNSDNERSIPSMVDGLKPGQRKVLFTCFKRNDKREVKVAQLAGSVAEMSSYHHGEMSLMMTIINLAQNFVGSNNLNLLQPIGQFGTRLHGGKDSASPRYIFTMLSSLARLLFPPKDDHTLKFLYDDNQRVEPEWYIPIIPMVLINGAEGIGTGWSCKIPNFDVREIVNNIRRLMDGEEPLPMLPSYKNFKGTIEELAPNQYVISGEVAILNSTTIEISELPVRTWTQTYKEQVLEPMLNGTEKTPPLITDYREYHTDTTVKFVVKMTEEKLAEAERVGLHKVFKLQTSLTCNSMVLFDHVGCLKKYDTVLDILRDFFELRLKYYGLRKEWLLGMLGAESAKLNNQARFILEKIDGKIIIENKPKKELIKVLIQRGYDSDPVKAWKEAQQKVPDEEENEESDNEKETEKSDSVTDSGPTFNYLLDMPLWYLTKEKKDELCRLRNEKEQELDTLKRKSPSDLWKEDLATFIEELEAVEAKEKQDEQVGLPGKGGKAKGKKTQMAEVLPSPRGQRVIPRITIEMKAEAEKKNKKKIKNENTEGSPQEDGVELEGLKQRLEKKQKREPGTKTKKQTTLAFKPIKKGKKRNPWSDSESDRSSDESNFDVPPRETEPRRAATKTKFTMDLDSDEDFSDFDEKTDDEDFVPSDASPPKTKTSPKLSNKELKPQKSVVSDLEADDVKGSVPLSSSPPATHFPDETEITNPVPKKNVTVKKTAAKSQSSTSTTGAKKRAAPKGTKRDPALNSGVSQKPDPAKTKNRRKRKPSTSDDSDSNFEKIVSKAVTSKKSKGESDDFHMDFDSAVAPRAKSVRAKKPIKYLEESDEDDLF
T2 sequence (P11388 whole entry, one chain of several): as the sequence (P11388 whole entry) above
Sequence of topoisomerase II α (P11388 whole entry): as above

For the compound `CCCCCSc1nc(N)nc2[nH]cnc12` [NSC35862], the IC50 at topoisomerase II α (setting [5]) came out at 85.4 µM.

Consider `Nc1nc2c(ncn2COCCO)c(=O)[nH]1` [acyclovir, 9-[(2-hydroxyethoxy)methyl]guanine, reference compound], for which the “inhibitory effect on ATPase reaction, in words” value (shortened to “inhibitory effect”) against topoisomerase II α (concentrations up to 300 μM) is “no inhibitory effect”.

Turning to `Nc1nc(Cl)c2nc[nH]c2n1` [6-chloroguanine, reference compound], the “inhibitory effect” value on topoisomerase II α (concentration not given) is “no inhibitory effect”.

Regarding `Nc1nc(Sc2cc([N+](=O)[O-])c3nonc3c2)c2ncn(C3OC(CO)C(O)C3O)c2n1` (stereo not shown) [NSC348400], the IC50 at topoisomerase II α (setting [5]) was 0.389 µM.

With `CCn1c(C)nc([N+](=O)[O-])c1Sc1nc(N)nc2[nH]cnc12` [NSC42375], the IC50 on topoisomerase II α (setting [5]) is 7.87 µM.

For `Sc1ncc2nc[nH]c2n1` [2-thiopurine], the IC50 on topoisomerase II α (setting [6]) was around 3 µM. Further, the “inhibition of DNA strand passage (decatenation) activity, in words” value (shortened to “inhibition of DNA strand passage … in words”) in data set [1] was “virtually no effect”. In the data set with human SCLC OC—NYH cells [2] (concentrations up to 30 μM), the “effect on the level of etoposide-induced cytotoxicity, in words” value (shortened to “effect on the level”) is on record as “no detectable effect”.

For `Nc1nc2nc[nH]c2c(=S)[nH]1` [6-thioguanine, reference compound], the IC50 was around 30 µM on topoisomerase II α (setting [6]) and around 50 µM in data set [1] (FIG. 5, read-out: half-maximal inhibition of DNA strand passage activity).

As for `CC(=O)OCSc1ncnc2c1ncn2CN1CCOCC1` [NSC647471], the IC50 at topoisomerase II α (setting [5]) turned out to be 119 µM.

`Cn1cnc([N+](=O)[O-])c1Sc1nc(N)nc2c1ncn2C1CC(O)C(CO)O1` (stereo not shown) [NSC172614]: the IC50 on topoisomerase II α (setting [5]) stood at 121 µM.

For the compound `Nc1nc(SCCCc2ccccc2)c2nc[nH]c2n1` [NSC39328], the IC50 at topoisomerase II α (setting [5]) was 151 µM.

For `Cn1cnc([N+](=O)[O-])c1Sc1ncnc2nc[nH]c12` [azathioprine, 6-(1-methyl-4-nitroimidazol-5-yl)thiopurine, reference compound], the “inhibitory effect” value on topoisomerase II α (concentration not given) was “capable of inhibiting topoisomerase II ATPase activity”. The “effect on the level” value with human SCLC OC—NYH cells [2] (concentrations up to 500 μM) is “no detectable effect”.

Consider `CCSc1nc(N)c(Br)c(Sc2nc(N)nc3[nH]cnc23)n1` [NSC52388], for which, on topoisomerase II α (setting [5]), the IC50 came out at 36.4 µM.

For `Nc1nc(SC/C=C/c2ccccc2)c2nc[nH]c2n1` [NSC36824], at topoisomerase II α (setting [5]), the IC50 stood at 68.9 µM.

On to `Nc1nc2c(ncn2Cc2ccccc2)c(=O)[nH]1` [9-benzylguanine, reference compound], for which the “inhibitory effect” value at topoisomerase II α (concentrations up to 300 μM) was “no inhibitory effect”.

On to `Nc1nc(SCc2ccc(F)cc2)c2nc[nH]c2n1` [NSC35865], for which the IC50 at topoisomerase II α (setting [5]) was 53.6 µM.

Regarding `CNc1ncnc(Sc2nc(N)nc3[nH]cnc23)c1[N+](=O)[O-]` [NSC38732], the IC50 at topoisomerase II α (setting [5]) was 34.1 µM.

On to `Nc1nc(OCC2CCCCC2)c2nc[nH]c2n1` [NU 2058, O^6-cyclohexylmethylguanine], for which the “inhibition of ATPase activity in the presence of DTT, in words” value at topoisomerase II α is given as “could inhibit ATPase activity”. In addition, on topoisomerase II α (setting [6]), the IC50 stood at 300 µM.

Regarding `Nc1nc(OCc2ccccc2)c2nc[nH]c2n1` [O^6-benzylguanine], the “inhibition of ATPase activity in the presence of DTT, in words” value on topoisomerase II α is reported as “could inhibit ATPase activity”. For the same compound, the IC50 on topoisomerase II α (setting [6]) amounted to 1000 µM.

Turning to `Sc1ncnc2nc[nH]c12` [6-thiopurine], the IC50 on topoisomerase II α (setting [6]) is around 100 µM. The “concentration at which maximal inhibition of DNA strand passage activity is reached” value in data set [1] (FIG. 5) is above 1000 µM. Besides, the “effect on the level” value with human SCLC OC—NYH cells [2] (concentrations up to 300 μM) is listed as “no detectable effect”.

As to `Nc1nc(SCc2ccccc2)c2[nH]cnc2n1` [NSC15747], at topoisomerase II α (setting [5]), the IC50 stood at 13.4 µM.

Regarding `CCOC(=O)c1cc([N+](=O)[O-])c(Sc2ncnc3[nH]cnc23)c([N+](=O)[O-])c1` [NSC244708], the IC50 at topoisomerase II α (setting [5]) is 2.74 µM.

Turning to `S=c1[nH]c(=S)c2[nH]cnc2[nH]1` [2,6-dithiopurine], the IC50 at topoisomerase II α (setting [6]) was around 3 µM. Also, in data set [1], the “inhibition of DNA strand passage … in words” value is reported as “an effect between that of the two 6-substituted thiopurines”. For the same compound, the “effect on the level” value in the data set with human SCLC OC—NYH cells [2] (concentrations up to 30 μM) is on record as “no detectable effect”.

For the compound `O=[N+]([O-])c1ccc(Sc2ncnc3[nH]cnc23)c2nonc12` [NSC348402], the IC50 on topoisomerase II α (setting [5]) turned out to be 0.777 µM.

On to `COc1cc(NS(C)(=O)=O)ccc1Nc1c2ccccc2nc2ccccc12` [m-AMSA, methanesulfone-m-anisidine-4′-[(9-acridinyl)amino] hydrochloride], for which the “effect on Δcpm with increasing concentrations, in words” value in data set [3] (with ATP, FIG. 6) is reported as “increase Δcpm in a dose-dependent manner”.

`Cc1ccc(CSc2nc(N)nc3[nH]cnc23)cc1` [NSC46384]: the IC50 at topoisomerase II α (setting [5]) was determined as 14.1 µM.

Take `N#CCSc1nc(N)nc2[nH]cnc12` [NSC39331]: on topoisomerase II α (setting [5]), the IC50 was found to be 19 µM.

Turning to `CSc1nc(Cl)c(Br)c(Sc2nc(N)nc3[nH]cnc23)n1` [NSC52383], the IC50 at topoisomerase II α (setting [5]) turned out to be 12.7 µM.

For the compound `Nc1nc(Sc2ccc([N+](=O)[O-])c3nonc23)c2[nH]cnc2n1` [NSC348401], the IC50 on topoisomerase II α (setting [5]) stood at 0.372 µM.

Turning to `CSc1nc(N)nc2nc[nH]c12` [6-methylthioguanine], the “inhibitory effect” value on topoisomerase II α (concentration not given) is “capable of inhibiting topoisomerase II ATPase activity”. The “inhibition of DNA strand passage … in words” value in data set [1] was “almost no inhibition of decatenation activity”. For the same compound, the “effect on the level” value in the data set on human SCLC OC—NYH cells [2] (concentrations up to 500 μM) is listed as “no detectable effect”.

Consider `COc1cc([C@@H]2c3cc4c(cc3[C@@H](O[C@@H]3O[C@@H]5CO[C@@H](C)O[C@H]5[C@H](O)[C@H]3O)[C@H]3COC(=O)[C@H]23)OCO4)cc(OC)c1O` [etoposide, 4′-demethylepipodophyllotoxin 9-(4,6-O-ethylidene-b-D-glucopyranoside)], for which the “effect on Δcpm with increasing concentrations, in words” value in data set [3] (ATP omitted from the reaction) is “no detectable increase in Δcpm”; in data set [3] (with ATP, FIG. 6), “increase Δcpm in a dose-dependent manner”. For the same compound, the “increase of the level of covalent complex formation, factor” value in data set [3] (etoposide up to 40 μM, with ATP) is 6. Further, in the data set on human SCLC OC—NYH cells [4], the “DNA fragmentation by the drug alone, in words” value was “extensive fragmentation of DNA”.

As to `COc1nc(N)nc2nc[nH]c12` [O^6-methylguanine, reference compound], the “inhibitory effect” value on topoisomerase II α (concentrations up to 300 μM) was “no detectable inhibitory effect”.

The values are drawn from patent US20090209535A1, “6-ETHER/THIOETHER-PURINES AS TOPOISOMERASE II CATALYTIC INHIBITORS AND THEIR USE IN THERAPY” (TOPOTARGET A/S, priority 2005, published 2009).
